In ChEMBL document CHEMBL3044974, “Design, synthesis, insecticidal activity and structure-activity relationship of 3,3-dichloro-2-propenyloxy-containing phthalic acid diamide structures” (2012):

Legend:
Assay type in all cases: functional
Plutella xylostella [1] = experiment: Insecticidal activity against Plutella xylostella (diamondback moth) third-instar larvae reared on 100 ug/mL compound pre-treated cabbage leaf disks assessed as insect mortality measured after 2 days post compound treatment by leaf dipping method
Plutella xylostella [2] = experiment: Insecticidal activity against Plutella xylostella (diamondback moth) third-instar larvae reared on 100 ug/mL compound pre-treated cabbage leaf disks assessed as insect mortality measured after 3 days post compound treatment by leaf dipping method
Plutella xylostella [3] = experiment: Insecticidal activity against Plutella xylostella (diamondback moth) third-instar larvae reared on 10 ug/mL compound pre-treated cabbage leaf disks assessed as insect mortality measured after 3 days post compound treatment by leaf dipping method
Plutella xylostella [4] = experiment: Insecticidal activity against Plutella xylostella (diamondback moth) third-instar larvae reared on 10 ug/mL compound pre-treated cabbage leaf disks assessed as insect mortality measured after 2 days post compound treatment by leaf dipping method

Row | SMILES | mortality (Plutella xylostella [1]) | mortality (Plutella xylostella [2]) | mortality (Plutella xylostella [3]) | mortality (Plutella xylostella [4])
1 | COCC(C)(C)NC(=O)c1c(I)cccc1C(=O)Nc1ccc(OCC=C(Cl)Cl)cc1C | 47% | 72% |  | 
2 | CC(C)(CS(C)(=O)=O)NC(=O)c1c(I)cccc1C(=O)Nc1ccc(OCC=C(Cl)Cl)cc1F | 55% | 90% |  | 
3 | CC(C)(C)NC(=O)c1c(I)cccc1C(=O)Nc1ccc(OCC=C(Cl)Cl)c(Cl)c1 | 57% | 76% |  | 
4 | CSCC(C)(C)NC(=O)c1c(I)cccc1C(=O)Nc1ccc(OCC=C(Cl)Cl)cc1 | 15% | 45% |  | 
5 | CC(C)(C)NC(=O)c1c(I)cccc1C(=O)Nc1ccc(OCC=C(Cl)Cl)cc1C(F)(F)F | 65% | 90% |  | 
6 | CC(C)(CS(C)(=O)=O)NC(=O)c1c(I)cccc1C(=O)Nc1ccc(OCC=C(Cl)Cl)cc1 | 15% | 60% |  | 
7 | COCC(C)(C)NC(=O)c1c(I)cccc1C(=O)Nc1ccc(OCC=C(Cl)Cl)cc1F | 47% | 61% |  | 
8 | CSCC(C)(C)NC(=O)c1c(I)cccc1C(=O)Nc1ccc(OCC=C(Cl)Cl)cc1Cl | 100% |  | 43% | 0%
9 | CC(C)(CS(C)(=O)=O)NC(=O)c1c(I)cccc1C(=O)Nc1ccc(OCC=C(Cl)Cl)c(Cl)c1 | 24% | 48% |  | 
10 | COCC(C)(C)NC(=O)c1c(I)cccc1C(=O)Nc1ccc(OCC=C(Cl)Cl)c(Cl)c1 | 42% | 61% |  | 
11 | COCC(C)(C)NC(=O)c1c(I)cccc1C(=O)Nc1ccc(OCC=C(Cl)Cl)cc1Cl | 54% | 63% |  | 
12 | CSCC(C)(C)NC(=O)c1c(I)cccc1C(=O)Nc1ccc(OCC=C(Cl)Cl)c(C(F)(F)F)c1 | 0% | 0% |  | 
13 | Cc1cc(C(F)(C(F)(F)F)C(F)(F)F)ccc1NC(=O)c1cccc(I)c1C(=O)NC(C)(C)CS(C)(=O)=O [FLUBENDIAMIDE] | 100% |  | 100% | 67%
14 | CC(C)(C)NC(=O)c1c(I)cccc1C(=O)Nc1ccc(OCC=C(Cl)Cl)c(C(F)(F)F)c1 | 0% | 8% |  | 
15 | Cc1cc(OCC=C(Cl)Cl)ccc1NC(=O)c1cccc(I)c1C(=O)NC(C)(C)CS(C)(=O)=O | 76% | 81% |  | 
16 | CC(C)(C)NC(=O)c1c(I)cccc1C(=O)Nc1ccc(OCC=C(Cl)Cl)cc1Cl | 90% | 100% | 91% | 65%
17 | CSCC(C)(C)NC(=O)c1c(I)cccc1C(=O)Nc1ccc(OCC=C(Cl)Cl)cc1C | 90% | 95% | 19% | 10%

Row | SMILES | mortality (Plutella xylostella [1]) | mortality (Plutella xylostella [2]) | mortality (Plutella xylostella [3]) | mortality (Plutella xylostella [4])
18 | CSCC(C)(C)NC(=O)c1c(I)cccc1C(=O)Nc1ccc(OCC=C(Cl)Cl)cc1F | 58% | 100% | 0% | 0%
19 | FC(F)(F)c1ccc(OCCCOc2c(Cl)cc(OCC=C(Cl)Cl)cc2Cl)nc1 [PYRIDALYL] | 100% |  | 37% | 13%
20 | COCC(C)(C)NC(=O)c1c(I)cccc1C(=O)Nc1ccc(OCC=C(Cl)Cl)cc1C(F)(F)F | 32% | 44% |  | 
21 | CC(C)(C)NC(=O)c1c(I)cccc1C(=O)Nc1ccc(OCC=C(Cl)Cl)cc1F | 81% | 100% | 0% | 0%
22 | CC(C)(CS(C)(=O)=O)NC(=O)c1c(I)cccc1C(=O)Nc1ccc(OCC=C(Cl)Cl)c(C(F)(F)F)c1 | 0% | 0% |  | 
23 | CC(C)(C)NC(=O)c1c(I)cccc1C(=O)Nc1ccc(OCC=C(Cl)Cl)cc1 | 39% | 78% |  | 
24 | CC(C)(CS(C)(=O)=O)NC(=O)c1c(I)cccc1C(=O)Nc1ccc(OCC=C(Cl)Cl)cc1Cl | 75% | 100% | 20% | 0%
25 | CSCC(C)(C)NC(=O)c1c(I)cccc1C(=O)Nc1ccc(OCC=C(Cl)Cl)cc1C(F)(F)F | 57% | 62% |  | 
26 | Cc1cc(NC(=O)c2cccc(I)c2C(=O)NC(C)(C)CS(C)(=O)=O)ccc1OCC=C(Cl)Cl | 8% | 19% |  | 
27 | Cc1cc(OCC=C(Cl)Cl)ccc1NC(=O)c1cccc(I)c1C(=O)NC(C)(C)C | 69% | 100% | 58% | 32%
28 | CSCC(C)(C)NC(=O)c1c(I)cccc1C(=O)Nc1ccc(OCC=C(Cl)Cl)c(C)c1 | 0% | 10% |  | 
29 | COCC(C)(C)NC(=O)c1c(I)cccc1C(=O)Nc1ccc(OCC=C(Cl)Cl)c(C(F)(F)F)c1 | 42% | 44% |  | 
30 | CC(C)(CS(C)(=O)=O)NC(=O)c1c(I)cccc1C(=O)Nc1ccc(OCC=C(Cl)Cl)cc1C(F)(F)F | 25% | 69% |  | 
31 | CSCC(C)(C)NC(=O)c1c(I)cccc1C(=O)Nc1ccc(OCC=C(Cl)Cl)c(Cl)c1 | 38% | 81% |  | 
32 | Cc1cc(NC(=O)c2cccc(I)c2C(=O)NC(C)(C)C)ccc1OCC=C(Cl)Cl | 0% | 25% |  | 
33 | COCC(C)(C)NC(=O)c1c(I)cccc1C(=O)Nc1ccc(OCC=C(Cl)Cl)c(C)c1 | 42% | 70% |  | 
